# Experimental data reported in US9360486B2, “Allergen fragments” (Biomay AG, priority 2007, dated 2016).
# Test system: Amb a 1-specific T cell lines (TCL)
# Experiment: T cell epitope mapping of Amb a 1.3: proliferation (3H-thymidine uptake) of TCL stimulated with synthetic peptides
# Format: cell-based, human
# Details: for No. positive patients SI > 3 / No. positive patients SI > 5 / % (positive patients SI > 3) / % (positive patients SI > 5): TCL from 48 ragweed pollen-allergic patients, peptide 5 μg/ml; for No. positive patients SI > 3 / No. positive patients SI > 5: 3H-thymidine uptake after 48 hrs; for No. positive patients SI > 3 / % (positive patients SI > 3): stimulation index > 3; for No. positive patients SI > 5 / % (positive patients SI > 5): stimulation index > 5; for T cell activating region recognized by % of patients: classes of prevalence referring to SI>5, 48 TCL
# Procedure, shortened: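 Amb a 1-specific TCL from ragweed-allergic patients, raised with ragweed extract or rAmb a 1.3, stimulated 48 h with 121 overlapping 12-mer peptides plus one C-terminal 13-mer (9-residue overlap) at 5 μg/ml. Proliferation by 3H-thymidine uptake; SI against the mean cpm of the ten least stimulating peptides, epitope when SI ≥3.0.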
Sequence,reactivity with T cells isolated from allergic individuals,No. positive patients SI > 3,No. positive patients SI > 5,% (positive patients SI > 3) [%],% (positive patients SI > 5) [%],T cell activating region recognized by % of patients,T cell reactivity with samples from individuals suffering from ragweed pollen allergy
PTILCQGNRFLA (Amb a 1 fragment) [Peptide 94],reactivity with T cells,11,9,22.9,18.8,recognized by 18.8%,–
PVQSAGMIPAEP (Amb a 1 fragment) [Peptide 114],reactivity with T cells,8,5,16.7,10.4,–,–
PVQSAGMIPAEPGEA (Amb a 1 fragment) [Peptide 114-115],reactivity with T cells,–,–,–,–,recognized by 35.4%,–
QACEAYNIIDKC (Amb a 1 fragment) [Peptide 7],–,1,0,2.1,0.0,–,–
QELVVNSDKTID (Amb a 1 fragment) [Peptide 36],reactivity with T cells,14,12,29.2,25.0,–,–
QELVVNSDKTIDGRG (Amb a 1 fragment) [Peptide 36-37],reactivity with T cells,–,–,–,–,recognized by 25.0%,–
QGFAKGTYGGKW (Amb a 1 fragment) [Peptide 17],–,2,1,4.2,2.1,–,–
QIKKNVLARTGT (Amb a 1 fragment) [Peptide 99],reactivity with T cells,8,4,16.7,8.3,–,–
QIWIDHCSLSKS (Amb a 1 fragment) [Peptide 61],reactivity with T cells,29,24,60.4,50.0,–,–
QNRPLWIIFKND (Amb a 1 fragment) [Peptide 30],reactivity with T cells,11,9,22.9,18.8,–,–
QNRPLWIIFKNDMVI (Amb a 1 fragment) [Peptide 30-31],reactivity with T cells,–,–,–,–,recognized by 20.8%,–
RCRFGFFQVVNN (Amb a 1 fragment) [Peptide 85],–,4,1,8.3,2.1,–,–
RMPRCRFGFFQV (Amb a 1 fragment) [Peptide 84],–,3,1,6.3,2.1,–,–
RQASDGDTINVA (Amb a 1 fragment) [Peptide 56],–,1,1,2.1,2.1,–,–
RSLQACEAYNII (Amb a 1 fragment) [Peptide 6],–,1,0,2.1,0.0,–,–
RWGTYAIGGSSA (Amb a 1 fragment) [Peptide 90],reactivity with T cells,5,3,10.4,6.3,–,–
SAEGVGEILPSV (Amb a 1 fragment) [Peptide 1],–,2,0,4.2,0.0,–,–
SAGMIPAEPGEA (Amb a 1 fragment) [Peptide 115],reactivity with T cells,18,17,37.5,35.4,–,–
SAGVLSCRPGAPC (Amb a 1 fragment) [Peptide 121],reactivity with T cells,6,2,12.5,4.2,–,–

Sequence,reactivity with T cells isolated from allergic individuals,No. positive patients SI > 3,No. positive patients SI > 5,% (positive patients SI > 3) [%],% (positive patients SI > 5) [%],T cell activating region recognized by % of patients,T cell reactivity with samples from individuals suffering from ragweed pollen allergy
SDGDTINVAGSS (Amb a 1 fragment) [Peptide 57],–,0,0,0.0,0.0,–,–
SDKTIDGRGVKV (Amb a 1 fragment) [Peptide 38],reactivity with T cells,13,11,27.1,22.9,–,–
SDKTIDGRGVKVEIINGG (Amb a 1 fragment) [Peptide 38-40],reactivity with T cells,–,–,–,–,recognized by 33.3%,–
SDPVLTPVQSAG (Amb a 1 fragment) [Peptide 112],reactivity with T cells,7,3,14.6,6.3,–,–
SKAILLGADDTH (Amb a 1 fragment) [Peptide 73],–,4,2,8.3,4.2,–,–
SKSFDGLVDVTL (Amb a 1 fragment) [Peptide 64],–,3,1,6.3,2.1,–,–
SSAPTILCQGNR (Amb a 1 fragment) [Peptide 93],reactivity with T cells,6,4,12.5,8.3,–,–
TDNVDQRMPRCR (Amb a 1 fragment) [Peptide 82],–,3,2,6.3,4.2,–,–
TGTGAAESMAWN (Amb a 1 fragment) [Peptide 102],reactivity with T cells,9,6,18.8,12.5,–,–
TIDGRGVKVEII (Amb a 1 fragment) [Peptide 39],reactivity with T cells,19,16,39.6,33.3,–,–
TQQSKAILLGAD (Amb a 1 fragment) [Peptide 72],–,4,2,8.3,4.2,–,–
TSGSDPVLTPVQ (Amb a 1 fragment) [Peptide 111],reactivity with T cells,16,11,33.3,22.9,–,–
TSNLDDDVANPK (Amb a 1 fragment) [Peptide 23],–,2,1,4.2,2.1,–,–
TYAIGGSSAPTI (Amb a 1 fragment) [Peptide 91],reactivity with T cells,13,11,27.1,22.9,recognized by 22.9%,high T cell reactivity
TYGGKWGDVYTV (Amb a 1 fragment) [Peptide 19],–,2,0,4.2,0.0,–,–
VAFNMFTDNVDQ (Amb a 1 fragment) [Peptide 80],reactivity with T cells,10,6,20.8,12.5,–,–
VAFNMFTDNVDQRMP (Amb a 1 fragment) [Peptide 80-81],reactivity with T cells,–,–,–,–,recognized by 12.5%,–
VDQRMPRCRFGF (Amb a 1 fragment) [Peptide 83],reactivity with T cells,10,8,20.8,16.7,recognized by 16.7%,–
VKVEIINGGLTL (Amb a 1 fragment) [Peptide 41],reactivity with T cells,5,1,10.4,2.1,–,–
